Values of other authors as cited in patent publication US20080286370A1, “Nanoscale Particles Used as Contrasting Agents in Magnetic Resonance Imaging” (priority 2005, published 2008).

Assays:
[1] = copper or zinc
[2] = in vivo
[3] = human, in vivo

- exchange of gadolinium with endogenic metal ions [1]: less than 1%
- eliminated [2]: 75%
- patients who suffered from nausea [3]: 8
- patients who suffered from vomiting [3]: 5
- pseudohypocalcaemia [3]: has not caused pseudohypocalcaemia
- systemic osmolality effects [3]: negligible
- temperature, headaches, an unwell feeling, skin rash and an unpleasant taste in the mouth [3]: less than 0.15%
- total rate of nausea and vomiting [3]: 0.31%
Structure (SMILES): O=C([O-])CN1CCN(CC(=O)[O-])CCN(CC(=O)O)CCN(CC(=O)[O-])CC1.[Gd+3] [Gd-DOTA, gadoteric acid]
- passage through the blood/brain barrier [2]: do not pass through the blood/brain barrier
- adverse effect on vital parameters or renal function [3]: absolutely no adverse effect
- side-effect rate [3]: 0.84-0.97%
